In US20260167659A1, “STING AGONISTS” (LIGACHEM BIOSCIENCES INC., priority 2022, published 2026):

Assays:
[1] = Normal cell cytotoxicity in PBMCs, CellTiter-Glo; assay type: cell-based; conditions: human, read-out: In vitro cell cytotoxicity in PBMCs CC50
In short: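 PBMCs at 8.0×10^4 cells/well in RPMI 1640 with 10% FBS were rested 24 h at 37 °C. Cells were then exposed to the STING agonists for 72 h. Viability was read by CellTiter-Glo luminescence and expressed as percentage cell death.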

EMT6 cells = assay: In vivo efficacy, EMT6 syngeneic mouse model; set-up: species or system BALB/c mice; conditions: FIG. 12
Protocol: Female BALB/c mice (KOTECH, South Korea) with 6 weeks of age, were used for all studies that were completed under the approval of the Legochembio Science's Institutional Animal Care and Use Committee (IACUC). CT26 or EMT6 cells (American Type Culture Collection (ATCC), #CRL-2638, #CRL-2755) were maintained in RPMI 1640 medium (Gibco, #22400097) supplemented with 10% heat-inactivated FBS and 1× Antibiotic-Antimycotic (Gibco, #15240062) at 37° C. with 5% CO2. The mycoplasma-negative cells were used for all experiments and mycoplasma test was done regularly using e-Myco™ VALiD Mycoplasma PCR Detection Kit (iNtRON biotechnology, #25239). CT26 cells (2×10^5 cells/mouse) or EMT6 cells (5×10^5 cells/mouse) in PBS were implanted subcutaneously into the shaved right flank. Tumor volumes and body weights were measured every 3 to 4 days, and the tomor volumes were calculated according to the formula 0.5×(length)×(width)^2.
Specifically, to determine in vivo efficacy of STING agonist compounds (Compound 214 and 221) in CT26 syngeneic mouse model, when tumor volume reached 70 mm^3, each compound was given at 1.5 mg/kg intravenously every 3 or 4 days (total three times). […] To determine in vivo efficacy of STING agonist compound (Compound 313) in EMT6 syngeneic mouse model, when tumor volume 100 mm^3, the compound was given at the indicated doses intravenously once weekly for 3 weeks except for the dose at 0.05 mg/kg twice a week.
A syngeneic system was used to assess the ability of the STING agonist compounds to induce immune responses and drive an anti-tumor immune response. In both CT26 and EMT6 syngeneic models, the STING agonist compounds remarkably controlled tumor growth at various doses (FIGS. 7 to 12).
Compound 313 also eliminated tumors in all groups (1 out of 5 for 0.05 mg/kg, 2 out of 5 for 0.1 mg/kg, 5 out of 5 for both 0.3 and 0.6 mg/kg) in EMT6 model (FIG. 12).

human STING = molecular target: T1, human STING (Homo sapiens, UniProt Q86WV6, H232R); assay: Direct STING binding, HUMAN STING WT BINDING KIT (Cisbio); conditions: direct binding to human STING WT protein in vitro; read-out: Binding potency EC50
T1 construct: purchased Cisbio 64BDSTGPEG
T1 sequence (Q86WV6 whole entry H232R): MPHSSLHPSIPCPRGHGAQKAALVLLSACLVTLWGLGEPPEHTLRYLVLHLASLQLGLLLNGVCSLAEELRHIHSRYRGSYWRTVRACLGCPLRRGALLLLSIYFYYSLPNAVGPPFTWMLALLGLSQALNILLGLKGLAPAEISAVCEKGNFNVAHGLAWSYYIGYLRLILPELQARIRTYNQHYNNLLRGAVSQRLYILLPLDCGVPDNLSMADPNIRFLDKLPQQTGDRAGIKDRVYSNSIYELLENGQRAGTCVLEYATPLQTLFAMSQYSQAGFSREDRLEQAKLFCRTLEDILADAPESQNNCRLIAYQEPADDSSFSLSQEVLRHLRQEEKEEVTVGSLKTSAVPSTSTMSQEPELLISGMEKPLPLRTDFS
Description: Additionally, for analysis of direct binding potency of STING agonist compounds described herein to human STING, HUMAN STING WT BINDING KIT (Cisbio, #64BDSTGPEG) was used according to the manufacture's instruction.

hSTING H232 variant = molecular target: T2, hSTING H232 variant (Homo sapiens, UniProt Q86WV6); assay: STING activation, THP1-Dual IRF3 reporter assay, hSTING-H232 cells; assay type: cell-based; conditions: IRF3 luciferase reporter, 24 hours, read-out: STING activity using hSTING-H232 cells, H232 EC50
T2 construct: host or cells: THP1-Dual cells (human monocytes) with knocked-in hSTING H232
Protocol: (§1) To assess potency of STING agonist compounds described herein, THP1-Dual™ Cells (NF—KB-SEAP and IRF-Lucia luciferase reporter monocytes, InvivoGen) were used. The reporter cells were knocked-in either of hSTING-WT (R232, #thpd-r232), HAQ variant (#thpd-nfis), or H232 variant (#thpd-h232). All cells were cultured at 37° C. in a humidified incubator at 5% CO2 and maintained in RPMI 1640 medium (Gibco, #22400097) supplemented with 10% heat-inactivated FBS and 1×Pen-Strep (Gibco, #15140122). To measure STING agonist-mediated IRF3 activity, the cells (9.0×10^4 cells per well) were seeded in a flat-bottomed 96-well plate. The next day, the cells were treated with compounds in a serial dilution for 24 hours. Subsequently, 20 μL of the cell culture supernatant and 50 μL of the QUANTI-Luc™ reagent (InvivoGen, #rep-qlc) were mixed in a 96-well white plate and then, luciferase activity was measured using an EnVision Xcite multilabel reader. The data were analyzed using Prism8 software (4-parameter).
(§2) The potency of STING agonist compounds was evaluated by the activation of Type I Interferon pathway using THP-1 IRF3 reporter assay.

hSTING HAQ variant = molecular target: T3, hSTING HAQ variant (Homo sapiens, UniProt Q86WV6, G230A/H232R/R293Q/R71H); assay: STING activation, THP1-Dual IRF3 reporter assay, hSTING-HAQ cells; assay type: cell-based; conditions: IRF3 luciferase reporter, 24 hours, read-out: STING activity using hSTING-HAQ cells, HAQ EC50
T3 construct: host or cells: THP1-Dual cells (human monocytes)
T3 sequence (Q86WV6 whole entry R71H/G230A/H232R/R293Q): as the sequence (Q86WV6 whole entry H232R) above, with R71H, G230A, R293Q counted along it
Protocol: as §1, §2

EC50 (human STING): 0.08 nM | EC50 (hSTING H232 variant): 216 nM | EC50 (hSTING HAQ variant): 115 nM
SMILES: CCn1nc(C)cc1C(=O)Nc1nc2cc(C(N)=O)cc(OC/C=C/Cn3cc(NC(=O)OCc4ccc(O[C@@H]5O[C@H](C(=O)O)[C@@H](O)[C@H](O)[C@H]5O)c(C(=O)NCCOCCOCCN(C)C)c4)cn3)c2n1C/C=C/Cn1c(NC(=O)c2cc(C)nn2CC)nc2cc(C(N)=O)cc(OCCCC(=O)O)c21 [Compound 313]
CC50 at 72 h [1]: 98 nM | mice with tumors eliminated (EMT6 cells; 0.05 mg/kg intravenously twice a week): 1 out of 5 | mice with tumors eliminated (EMT6 cells; 0.1 mg/kg intravenously once weekly for 3 weeks): 2 out of 5 | mice with tumors eliminated (EMT6 cells; 0.3 mg/kg intravenously once weekly for 3 weeks): 5 out of 5 | mice with tumors eliminated (EMT6 cells; 0.6 mg/kg intravenously once weekly for 3 weeks): 5 out of 5
